Results taken from ChEMBL document CHEMBL1201862, “PubChem BioAssay data set” (2004).
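Tested at 5 concentrations; 48 h exposure; 96-well plates; endpoints linearly interpolated, else capped at highest concentration. GI50: concentration for 50% inhibition of growth.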 The source made the active and inactive calls. No stated cut-off is given here; in the data, active = GI50 up to about 1.1 µM and inactive = higher.

Legend:
Assay in all cases: NCI tumour cell line growth inhibition, 48 h
UACC-62 = test system: UACC-62
COLO 205 = test system: COLO 205
HCT-15 = test system: HCT-15
U-251 = test system: U-251
SK-MEL-28 = test system: SK-MEL-28
A549 = test system: A549
NCI-H460 = test system: NCI-H460
OVCAR-3 = test system: OVCAR-3
SN12C = test system: SN12C
CCRF-CEM = test system: CCRF-CEM
SR = test system: SR
SK-OV-3 = test system: SK-OV-3
HL-60 = test system: HL-60
OVCAR-5 = test system: OVCAR-5
NCI-H226 = test system: NCI-H226
SK-MEL-5 = test system: SK-MEL-5
HT-29 = test system: HT-29
CAKI-1 = test system: CAKI-1
NCI/ADR-RES = test system: NCI/ADR-RES
PC-3 = test system: PC-3

SMILES	GI50 (UACC-62)	GI50 (COLO 205)	GI50 (HCT-15)	GI50 (U-251)	GI50 (SK-MEL-28)	GI50 (A549)	GI50 (NCI-H460)	GI50 (OVCAR-3)	GI50 (SN12C)	GI50 (CCRF-CEM)	GI50 (SR)	GI50 (SK-OV-3)	GI50 (HL-60)	GI50 (OVCAR-5)	GI50 (NCI-H226)	GI50 (SK-MEL-5)	GI50 (HT-29)	GI50 (CAKI-1)	GI50 (NCI/ADR-RES)	GI50 (PC-3)
C[C@]12CC[C@@H]3c4ccccc4CC[C@H]3[C@@H]1CC[C@@H]2O	42.6 µM (inactive)	73.8 µM (inactive)	50.2 µM	> 100 µM (inactive)	> 100 µM (inactive)	99.3 µM (inactive)	38.5 µM (inactive)	> 100 µM (inactive)	83 µM (inactive)	62.5 µM (inactive)	56.1 µM (inactive)	> 100 µM (inactive)	> 10 µM (inactive)							
CC(O)c1ccc(C(O)/C(=N\NC(=O)c2ccncc2)c2nc3ccc([N+](=O)[O-])cc3nc2O)cc1 (stereo unspecified)	59.2 µM (inactive)	> 100 µM (inactive)	34.8 µM	> 100 µM (inactive)	> 100 µM (inactive)	> 100 µM (inactive)	> 100 µM (inactive)	> 100 µM (inactive)	> 100 µM (inactive)	> 100 µM (inactive)	75 µM (inactive)	> 100 µM (inactive)	50.5 µM (inactive)	> 100 µM (inactive)	> 100 µM (inactive)	> 100 µM (inactive)	96.2 µM (inactive)	52.8 µM (inactive)		
CCOc1ccccc1NC(=O)C(=O)CC(=O)c1sc(Nc2nnc(-c3ccc(Cl)c(Cl)c3)o2)nc1C	> 100 µM (inactive)	> 100 µM (inactive)	> 100 µM	18.8 µM (inactive)	> 100 µM (inactive)	> 100 µM (inactive)	51.8 µM (inactive)	77.8 µM (inactive)	> 100 µM (inactive)	40.8 µM (inactive)	> 100 µM (inactive)	> 100 µM (inactive)	> 100 µM (inactive)	> 100 µM (inactive)	> 100 µM (inactive)	> 100 µM (inactive)	> 100 µM (inactive)	> 100 µM (inactive)		
CCCCCCC(=O)C/C(CCC(=O)N(Cc1ccccc1)Cc1ccccc1)=N\NC(N)=O	> 100 µM (inactive)	> 100 µM (inactive)	> 100 µM	> 100 µM (inactive)	> 100 µM (inactive)	> 100 µM (inactive)	> 100 µM (inactive)	> 100 µM (inactive)	> 100 µM (inactive)	> 100 µM (inactive)	> 100 µM (inactive)	> 100 µM (inactive)	> 100 µM (inactive)	> 100 µM (inactive)	> 100 µM (inactive)	> 100 µM (inactive)	> 100 µM (inactive)	> 100 µM (inactive)		
O=C(NCc1ccncc1)C1COc2cc(-c3cc(=O)c4ccccc4o3)ccc2O1 (stereo unspecified)	> 100 µM (inactive)		> 100 µM	> 100 µM (inactive)	> 100 µM (inactive)	> 100 µM (inactive)	> 100 µM (inactive)	> 100 µM (inactive)	> 100 µM (inactive)	> 100 µM (inactive)	> 100 µM (inactive)	> 100 µM (inactive)	> 100 µM (inactive)	> 100 µM (inactive)		> 100 µM (inactive)	> 100 µM (inactive)			
COc1ccc(OC)c(NC(=O)C(=O)CC(=O)c2sc(-n3nc(-c4ccccc4)cc3-c3ccccc3)nc2C)c1	> 100 µM (inactive)	> 100 µM (inactive)	> 100 µM	> 100 µM (inactive)		> 100 µM (inactive)	> 100 µM (inactive)	> 100 µM (inactive)	> 100 µM (inactive)	> 100 µM (inactive)	27.7 µM (inactive)	> 100 µM (inactive)	> 100 µM (inactive)	> 100 µM (inactive)	> 100 µM (inactive)		> 100 µM (inactive)	> 100 µM (inactive)		
CC1(C2COC(=O)C2)SCCCS1 (stereo unspecified)	> 100 µM (inactive)	> 100 µM (inactive)	> 100 µM		> 100 µM (inactive)	> 100 µM (inactive)	> 100 µM (inactive)	> 100 µM (inactive)	> 100 µM (inactive)	> 100 µM (inactive)	> 100 µM (inactive)	53.8 µM (inactive)	> 100 µM (inactive)		> 100 µM (inactive)	> 100 µM (inactive)	> 100 µM (inactive)	> 100 µM (inactive)		
CC1=NN(c2nc(N)nc(-c3sccc3N)n2)C(C)(C)C1	58.3 µM (inactive)	79.1 µM (inactive)	59.4 µM	> 100 µM (inactive)	40.2 µM (inactive)	35.8 µM (inactive)	81.1 µM (inactive)	> 100 µM (inactive)	> 100 µM (inactive)	43.6 µM (inactive)		> 100 µM (inactive)	71.3 µM (inactive)	> 100 µM (inactive)	33.1 µM (inactive)	41.1 µM (inactive)	> 100 µM (inactive)	> 100 µM (inactive)	37.1 µM (inactive)	
COc1ccc(NC(=O)/C(O)=C/C(=O)c2ccccc2)cc1	> 10 µM (inactive)	> 10 µM (inactive)	> 10 µM		> 10 µM (inactive)	> 10 µM (inactive)			> 10 µM (inactive)	2.53 µM (inactive)	1.74 µM (inactive)	> 10 µM (inactive)	> 10 µM (inactive)			> 10 µM (inactive)	> 10 µM (inactive)	> 10 µM (inactive)		> 10 µM (inactive)
N#C/C(=C\c1ccccc1F)C(=O)c1ccccc1	> 100 µM (inactive)	> 100 µM (inactive)	> 100 µM	> 100 µM (inactive)	> 100 µM (inactive)	> 100 µM (inactive)		> 100 µM (inactive)	> 100 µM (inactive)	> 100 µM (inactive)	> 100 µM (inactive)	> 100 µM (inactive)	66.7 µM (inactive)	> 100 µM (inactive)		> 100 µM (inactive)	> 100 µM (inactive)	> 100 µM (inactive)		
CCSc1nc(-c2ccc(OC)cc2)c(C#N)c(=O)n1C1OCC(OC(C)=O)C(OC(C)=O)C1OC(C)=O (stereo unspecified)	> 100 µM (inactive)	> 100 µM (inactive)	> 100 µM	> 100 µM (inactive)	> 100 µM (inactive)	> 100 µM (inactive)	> 100 µM (inactive)		> 100 µM (inactive)		> 100 µM (inactive)	> 100 µM (inactive)		> 100 µM (inactive)	> 100 µM (inactive)	93.3 µM (inactive)	> 100 µM (inactive)	> 100 µM (inactive)		
CC(C)(C)C(=O)OCC(COC(=O)C(C)(C)C)[N+](=O)[O-]	47.6 µM (inactive)	57.1 µM (inactive)	> 100 µM	> 100 µM (inactive)	> 100 µM (inactive)	> 100 µM (inactive)	> 100 µM (inactive)	> 100 µM (inactive)	> 100 µM (inactive)	41.9 µM (inactive)	42.4 µM (inactive)	> 100 µM (inactive)	27.4 µM (inactive)	> 100 µM (inactive)	> 100 µM (inactive)		> 100 µM (inactive)	> 100 µM (inactive)		
CCN(CC)C(=O)c1c(Cl)cc(N(CC)CC)oc1=O	> 100 µM (inactive)	> 100 µM (inactive)	> 100 µM	> 100 µM (inactive)	> 100 µM (inactive)	> 100 µM (inactive)	> 100 µM (inactive)	> 100 µM (inactive)	> 100 µM (inactive)	> 100 µM (inactive)	> 100 µM (inactive)	> 100 µM (inactive)	> 100 µM (inactive)		> 100 µM (inactive)		> 100 µM (inactive)			
CC(=O)OCC1OC(n2c(-c3ccc(N)cc3)cc(-c3ccco3)c(C#N)c2=O)C(OC(C)=O)C(OC(C)=O)C1OC(C)=O (stereo unspecified)	37.2 µM (inactive)	> 50 µM (inactive)	> 50 µM	7.06 µM (inactive)	> 50 µM (inactive)	15.6 µM (inactive)		> 50 µM (inactive)	> 50 µM (inactive)		> 50 µM (inactive)	> 50 µM (inactive)		> 50 µM (inactive)		8.93 µM (inactive)	> 50 µM (inactive)	> 50 µM (inactive)		
ClC1=C(Cl)C(Cl)(Cl)c2c3c(c4c(c21)C(Cl)(Cl)C(Cl)=C4Cl)C(Cl)(Cl)C(Cl)=C3Cl		> 100 µM (inactive)	> 100 µM	> 100 µM (inactive)	> 100 µM (inactive)	> 100 µM (inactive)	> 100 µM (inactive)	> 100 µM (inactive)	> 100 µM (inactive)	> 100 µM (inactive)	> 100 µM (inactive)	> 100 µM (inactive)	> 100 µM (inactive)		> 100 µM (inactive)	> 100 µM (inactive)	> 100 µM (inactive)			
C#CCOCn1cnc2c(Cl)ncnc21	> 100 µM (inactive)	> 100 µM (inactive)		> 100 µM (inactive)	> 100 µM (inactive)	> 100 µM (inactive)	> 100 µM (inactive)	> 100 µM (inactive)	> 100 µM (inactive)	> 100 µM (inactive)	50.9 µM (inactive)	> 100 µM (inactive)		> 100 µM (inactive)	> 100 µM (inactive)	> 100 µM (inactive)	> 100 µM (inactive)	> 100 µM (inactive)		
CC(C)C[C@H](NC(=O)[C@@H](N)Cc1cccc2ccccc12)B(O)O	0.0482 µM (active)	0.0417 µM (active)	0.033 µM	0.0416 µM (active)	< 0.0149 µM (active)	0.0766 µM (active)	0.0695 µM (active)	< 0.0149 µM (active)	0.0426 µM (active)		< 0.0154 µM (active)	0.0703 µM (active)		0.0272 µM (active)	< 0.0132 µM (active)	< 0.0169 µM (active)	< 0.0178 µM (active)	< 0.0164 µM (active)		0.0667 µM (active)
